# Data taken from patent publication US9394297B2, “Amides as pim inhibitors” (AMGEN INC., priority 2012, dated 2016).
# pIC50: −log10 of the molar value. Where two headings read alike, the source gives them in different places.
# Legend:
# [1] = tested on: KMS-12-BM myeloma cell line; assay: Pim KMS-12 cell assay (phospho-BAD S112 / total BAD, MSD); details: Homo sapiens, KMS-12-BM, read-out: KMS-12-BM IC50 IP, KMS-12-BM cells, phospho-BAD (S112) vs total BAD, 1 hour 50 min with compound
# Pim-1 = Pim-1 (Homo sapiens (Human), UniProt P11309); assay: Pim-Mn enzyme assay (HTRF, 384-well), Pim-1; type: biochemical; details: read-out: Pim-1-Mn IC50 IP
# Pim-2 = Pim-2 (Homo sapiens (Human), UniProt Q9P1W9); assay: Pim-Mn enzyme assay (HTRF, 384-well), Pim-2; type: biochemical; details: read-out: Pim-2-Mn IC50 IP
# KMS-12-BM cell lines = assay: KMS12 #2 flow cytometry assay (phospho-BAD Ser112); type: cell-based; details: Homo sapiens, 110 min; KMS-12-BM cells, pBAD Ser112 by flow cytometry, 110 min with compound; read-out: KMS-12-Flow IC50 IP
# [2] = Pim-1 enzyme 5 pM, ATP 1.5 μM, BAD (S112) 0.5 μM, HTRF, 22-point curve
# [3] = Pim-2 enzyme 0.5 pM, ATP 1.5 μM, BAD (S112) 0.5 μM, HTRF, 22-point curve
# Sequence of Pim-1 (P11309 whole entry): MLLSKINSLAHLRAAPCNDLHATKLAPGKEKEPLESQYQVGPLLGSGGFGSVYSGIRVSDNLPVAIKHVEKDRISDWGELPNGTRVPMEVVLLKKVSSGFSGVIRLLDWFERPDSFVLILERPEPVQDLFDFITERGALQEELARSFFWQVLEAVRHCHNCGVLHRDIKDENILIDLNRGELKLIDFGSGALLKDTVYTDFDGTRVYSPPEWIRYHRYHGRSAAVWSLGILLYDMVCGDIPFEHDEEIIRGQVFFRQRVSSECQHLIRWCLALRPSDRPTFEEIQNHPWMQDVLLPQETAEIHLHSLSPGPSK
# Sequence of Pim-2 (Q9P1W9 whole entry): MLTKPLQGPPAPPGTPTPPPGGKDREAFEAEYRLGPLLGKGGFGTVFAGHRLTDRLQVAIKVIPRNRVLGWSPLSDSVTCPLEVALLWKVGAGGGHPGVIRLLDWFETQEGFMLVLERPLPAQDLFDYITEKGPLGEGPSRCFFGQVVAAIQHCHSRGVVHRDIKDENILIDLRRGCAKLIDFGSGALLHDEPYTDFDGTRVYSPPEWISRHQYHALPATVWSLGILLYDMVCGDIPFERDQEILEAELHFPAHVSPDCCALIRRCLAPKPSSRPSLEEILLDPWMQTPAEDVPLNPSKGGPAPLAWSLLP
SMILES,pIC50 [1],pIC50 (Pim-1; [2]),pIC50 (Pim-2; [3]),pIC50 (KMS-12-BM cell lines),pIC50 (Pim-1),pIC50 (Pim-2)
"Cc1nc2cccc(-c3cc4c([nH]3)CCNC4=O)c2nc1NC(C)(C)C(N)=O [Example 62, 2-methyl-N-2-(3-methyl-8-(4-oxo-4,5,6,7-tetrahydro-1H-pyrrolo[3,2-c]pyridin-2-yl)-2-quinoxalinyl)alaninamide]",5.58,–,–,–,–,–
"CC[C@@H]1CNC(=O)c2cc(-c3cccc4ccc(Nc5ccccc5)nc34)[nH]c21 [Example 25, (R)-7-ethyl-2-(2-(phenylamino)quinolin-8-yl)-6,7-dihydro-1H-pyrrolo[3,2-c]pyridin-4(5H)-one]",5.34,–,–,–,–,–
"Cc1cc2cccc(-c3cc4c([nH]3)CCNC4=O)c2nc1Oc1ccccc1 [Example 104, 2-(3-methyl-2-phenoxyquinolin-8-yl)-6,7-dihydro-1H-pyrrolo[3,2-c]pyridin-4(5H)-one]",5.28,–,–,–,–,–
"CC1CNC(=O)c2cc(-c3cccc4ccc(Nc5ccccc5)nc34)[nH]c21 (racemic) [Example 238, rac-7-methyl-2-(2-(phenylamino)quinolin-8-yl)-6,7-dihydro-1H-pyrrolo[3,2-c]pyridin-4(5H)-one]",5.89,–,–,–,–,–
"Cc1nc2cccc(-c3cc4c([nH]3)CCNC4=O)c2nc1NC1CCCOC1 (single isomer, unassigned) [Example 208, 2-(2-methyl-3-((tetrahydro-2H-pyran-3-yl)amino)quinoxalin-5-yl)-6,7-dihydro-1H-pyrrolo[3,2-c]pyridin-4(5H)-one]",6.44,–,–,–,–,–
"Nc1nc2cccc(-c3cc4c([nH]3)CCNC4=O)c2nc1Oc1ccccc1 [Example 36, 2-(2-amino-3-phenoxyquinoxalin-5-yl)-6,7-dihydro-1H-pyrrolo[3,2-c]pyridin-4(5H)-one]",6.68,–,–,–,–,–
"Cc1nc2ccc(F)c(-c3cc4c([nH]3)[C@@H](C)NC4=O)c2nc1NC1CC1 [Example 284, (R)-2-(3-(cyclopropylamino)-6-fluoro-2-methylquinoxalin-5-yl)-6-methyl-5,6-dihydropyrrolo[3,4-b]pyrrol-4(1H)-one]",–,10.55,10.42,7.73,–,–
"Cc1nc2cccc(-c3cc4c([nH]3)[C@@H](C)NC4=O)c2nc1NC(C)(C)CO [Example 302, (6R)-2-(3-((2-hydroxy-1,1-dimethylethyl)amino)-2-methyl-5-quinoxalinyl)-6-methyl-5,6-dihydropyrrolo[3,4-b]pyrrol-4(1H)-one]",–,–,–,7.15,8.74,8.84
"Cc1nc2cccc(-c3cc4c([nH]3)C3(CC3)NC4=O)c2nc1NC1(C)CC1 [Example 329, 2′-(2-methyl-3-((1-methylcyclopropyl)amino)-5-quinoxalinyl)-1′H-spiro[cyclopropane-1,6′-pyrrolo[3,4-b]pyrrol]-4′(5′H)-one]",–,–,–,7.58,9.48,9.41
"Cc1nc2ccc(F)c(-c3cc4c([nH]3)C3(CC3)NC4=O)c2nc1NC(C)C [Example 330, 2′-(6-Fluoro-3-(isopropylamino)-2-methylquinoxalin-5-yl)-1′H-spiro[cyclopropane-1,6′-pyrrolo[3,4-b]pyrrol]-4′(5′H)-one]",–,9.14,8.93,7.07,–,–
"Cc1nc2ccc(F)c(-c3cc4c([nH]3)C3(CC3)NC4=O)c2nc1NC1CC1 [Example 283, 2′-(3-(cyclopropylamino)-6-fluoro-2-methylquinoxalin-5-yl)-1′H-spiro[cyclopropane-1,6′-pyrrolo[3,4-b]pyrrol]-4′(5′H)-one]",–,9.52,9.56,7.12,–,–
"Cc1nc2cccc(-c3cc4c([nH]3)CCNC4=S)c2nc1NC(C)(C)C [Example 292, 2-(3-(tert-butylamino)-2-methylquinoxalin-5-yl)-6,7-dihydro-1H-pyrrolo[3,2-c]pyridine-4(5H)-thione]",–,8.79,8.60,6.18,–,–
"CC(C)(C)Nc1nc2c(-c3cc4c([nH]3)CCNC4=O)cccc2nc1C#N [Example 309, 3-(tert-butylamino)-5-(4-oxo-4,5,6,7-tetrahydro-1H-pyrrolo[3,2-c]pyridin-2-yl)quinoxaline-2-carbonitrile]",–,8.45,8.42,5.94,–,–
"Cc1nc2cccc(-c3cc4c([nH]3)C3(CC3)NC4=O)c2nc1NCC(F)(F)F [Example 381, 2′-(2-methyl-3-((2,2,2-trifluoroethyl)amino)quinoxalin-5-yl)-1′H-spiro[cyclopropane-1,6′-pyrrolo[3,4-b]pyrrol]-4′(5′H)-one]",–,–,–,6.67,8.80,8.87

# Further lines, with some results ahead:
pIC50 [1],pIC50 (Pim-1; [2]),pIC50 (Pim-2; [3]),pIC50 (KMS-12-BM cell lines),SMILES,pIC50 (Pim-1),pIC50 (Pim-2)
–,8.70,8.71,6.82,"C[C@@H](O)c1nc2cccc(-c3cc4c([nH]3)CCNC4=O)c2nc1NC(C)(C)C [Example 311, (R)-2-(3-(tert-butylamino)-2-(1-hydroxyethyl)quinoxalin-5-yl)-6,7-dihydro-1H-pyrrolo[3,2-c]pyridin-4(5H)-one]",–,–
–,7.51,7.47,4.88,"Cc1nc2ccnc(-c3cc4c([nH]3)CCNC4=O)c2nc1NC(C)(C)C [Example 368, 2-(3-(tert-butylamino)-2-methylpyrido[3,4-b]pyrazin-5-yl)-6,7-dihydro-1H-pyrrolo[3,2-c]pyridin-4(5H)-one]",–,–
–,8.47,8.76,6.28,"Cc1nc2cccc(-c3cc4c([nH]3)CCNC4=O)c2nc1N[C@H]1C[C@H](O)C1 [Example 442, 2-(3-((trans-3-Hydroxycyclobutyl)amino)-2-methylquinoxalin-5-yl)-6,7-dihydro-1H-pyrrolo[3,2-c]pyridin-4(5H)-one]",–,–
–,9.72,9.75,7.10,"Cc1nc2cccc(-c3cc4c([nH]3)[C@@H](CO)NC4=O)c2nc1NC1CC1 [Example 366, (S)-2-(3-(cyclopropylamino)-2-methylquinoxalin-5-yl)-6-(hydroxymethyl)-5,6-dihydropyrrolo[3,4-b]pyrrol-4(1H)-one]",–,–
–,7.47,7.57,< 4.40,"Cc1nc2cccc(-c3cc4c([nH]3)CCNC4=O)c2nc1N1CC(S(C)(=O)=O)C1 [Example 318, 2-(2-methyl-3-(3-(methylsulfonyl)-1-azetidinyl)-5-quinoxalinyl)-1,5,6,7-tetrahydro-4H-pyrrolo[3,2-c]pyridin-4-one]",–,–
–,9.60,9.41,7.46,"Cc1nc2ccc(F)c(-c3cc4c([nH]3)[C@H](C)NC4=O)c2nc1NC1(C)CC1 [Example 380, (S)-2-(6-fluoro-2-methyl-3-((1-methylcyclopropyl)amino)quinoxalin-5-yl)-6-methyl-5,6-dihydropyrrolo[3,4-b]pyrrol-4(1H)-one]",–,–
–,7.51,7.39,5.08,"Cc1nc2cccc(-c3cc4c([nH]3)CCNC4=O)c2nc1-c1ccoc1C [Example 433, 2-(2-Methyl-3-(2-methylfuran-3-yl)quinoxalin-5-yl)-6,7-dihydro-1H-pyrrolo[3,2-c]pyridin-4(5H)-one]",–,–
–,8.02,8.07,5.17,"Cc1nc2cccc(-c3cc4c(n3C)CCNC4=O)c2nc1NC(C)(C)C [Example 314, 2-(3-(tert-butylamino)-2-methylquinoxalin-5-yl)-1-methyl-6,7-dihydro-1H-pyrrolo[3,2-c]pyridin-4(5H)-one]",–,–
–,8.64,8.47,5.82,"Cc1nc2cccc(-c3[nH]c4c(c3C)C(=O)NCC4)c2nc1NC(C)(C)C [Example 350, 2-(3-(tert-butylamino)-2-methyl-5-quinoxalinyl)-3-methyl-1,5,6,7-tetrahydro-4H-pyrrolo[3,2-c]pyridin-4-one]",–,–
–,8.80,8.61,6.73,"Cc1nc2ccc(F)c(-c3cc4c([nH]3)[C@H]([C@@H](C)O)NC4=O)c2nc1NC1CC1 [Example 352, (6R)-2-(3-(cyclopropylamino)-6-fluoro-2-methyl-5-quinoxalinyl)-6-((1R)-1-hydroxyethyl)-5,6-dihydropyrrolo[3,4-b]pyrrol-4(1H)-one]",–,–
–,8.15,7.79,5.64,"Cc1nc2ccc(F)c(-c3cc4c([nH]3)[C@H]([C@H](C)O)NC4=O)c2nc1NC1CC1 [Example 354, (R)-2-(3-(cyclopropylamino)-6-fluoro-2-methylquinoxalin-5-yl)-6-((S)-1-hydroxyethyl)-5,6-dihydropyrrolo[3,4-b]pyrrol-4(1H)-one]",–,–
–,9.00,8.65,5.56,"CC(C)(C)Nc1nc2c(-c3cc4c([nH]3)CCNC4=O)cccc2nc1Cl [Example 345, 2-(3-(tert-butylamino)-2-chloro-5-quinoxalinyl)-1,5,6,7-tetrahydro-4H-pyrrolo[3,2-c]pyridin-4-one]",–,–
–,9.59,9.56,6.92,"CCC(C)(C)Nc1nc2c(-c3cc4c([nH]3)CCNC4=O)c(F)ccc2nc1C [Example 375, 2-(6-fluoro-2-methyl-3-(tert-pentylamino)quinoxalin-5-yl)-6,7-dihydro-1H-pyrrolo[3,2-c]pyridin-4(5H)-one]",–,–
–,9.57,9.71,6.91,"CCc1nc2cccc(-c3cc4c([nH]3)CCNC4=O)c2nc1NC(C)(C)C [Example 312, 2-(3-(tert-butylamino)-2-ethylquinoxalin-5-yl)-6,7-dihydro-1H-pyrrolo[3,2-c]pyridin-4(5H)-one]",–,–
–,7.67,8.05,5.41,"Cc1nc2cccc(-c3cc(C(N)=O)n[nH]3)c2nc1NC(C)(C)C [Example 467, 5-(3-(tert-butylamino)-2-methylquinoxalin-5-yl)-1H-pyrazole-3-carboxamide]",–,–
